Key:
PTZ-induced seizures = experiment: Subcutaneous pentylenetetrazole (sc-PTZ) test; type: in vivo, male Swiss albino mice; details: for Minimum active dose (mg/kg) Sc-PTZ 0.5 h / Minimum active dose (mg/kg) Sc-PTZ 4 h: oral, lowest dose active in half or more of the mice, n = 6;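 as to % protection Sc-PTZ 0.5 h: percent reduction of the test group versus the control group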;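 as to % protection Sc-PTZ 4 h: percent reduction of the test group versus the control group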
mice = experiment: Rotarod neurotoxicity screening; type: in vivo, male Swiss albino mice; details: for Neurotoxicity (rotarod test), result in words: at the highest dose (300 mg/kg); for Neurotoxicity dose (mg/kg) 0.5 h / Neurotoxicity dose (mg/kg) 4 h: rotarod, oral doses 30, 100, 300 mg/kg
Experimental: The rotarod test, as described in the literature, was used to evaluate neurotoxicity (NT) in mice. In brief, six mice (one group) were trained to balance on a spinning rod (3 cm diameter and 6 rpm speed) to familiarize with the rotarod apparatus (Orchid Scientific, India). Each mouse underwent three trials to remain on the rotating rod for over 1 minute, with the experiment’s cutoff time (180 s) remaining constant. Different pre-oral (p.o.) doses of test and standard substances were administered to the trained animals.

induced seizures = experiment: Anticonvulsant screening (MES and sc-PTZ), outcome recovery/death
MES-induced seizures = experiment: Maximal electroshock-induced seizure (MES) test; type: in vivo, male Swiss albino mice; details: for Minimum active dose (mg/kg) MES 0.5 h / Minimum active dose (mg/kg) MES 4 h: oral, lowest dose active in half or more of the mice, n = 6;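 as to % protection MES 0.5 h: percent reduction of the test group versus the control group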;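 as to % protection MES 4 h: percent reduction of the test group versus the control group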
[1] = target: T1, human carbonic anhydrase IX (Homo sapiens, UniProt Q16790); experiment: Human carbonic anhydrase IX colorimetric (p-nitrophenyl acetate) inhibition assay; type: biochemical; details: mean ± SEM, three independent experiments in triplicate; read-out: CA IX (IC50)
T1 construct: purchased Sino Biological Inc, Beijing, China
Experimental: (§1) In brief, the reaction mixture contained 60 μL of 50 mM Tris-sulfate buffer (pH 7.6, containing 0.1 mM ZnCl2),10 μL (0.5 mM) of the test compound in 1% DMSO, and 10 μL of human carbonic anhydrase II and IX (Sino Biological Inc, Beijing, China). All the ingredients were mixed well and pre-incubated at 25°C for 10 min. Substrate p-nitrophenyl acetate was prepared as a 6 mM stock solution using 5% of acetonitrile in buffer and was used fresh. […] The total assay volume was adjusted to 100 μL and further incubated at 37°C for 30 min. Furthermore, all the ingredients were mixed properly, and absorbance was measured. […] The results reported are the mean of triplicate experiments (±SEM) and expressed IC50 values, which were calculated.

[2] = target: T2, human carbonic anhydrase II (Homo sapiens, UniProt P00918); experiment: Human carbonic anhydrase II colorimetric (p-nitrophenyl acetate) inhibition assay; type: biochemical; details: mean ± SEM, three independent experiments in triplicate; read-out: CA II (IC50)
T2 construct: purchased Sino Biological Inc, Beijing, China
Experimental: as §1

SMILES | % protection Sc-PTZ 0.5 h (PTZ-induced seizures; 100 mg/kg oral) [%] | Minimum active dose (mg/kg) Sc-PTZ 0.5 h (PTZ-induced seizures) | Minimum active dose (mg/kg) Sc-PTZ 4 h (PTZ-induced seizures) [mg/kg] | Neurotoxicity dose (mg/kg) 0.5 h (mice) | Neurotoxicity dose (mg/kg) 4 h (mice) | Recovery/death (induced seizures; 100 mg/kg oral) | % protection MES 0.5 h (MES-induced seizures; 100 mg/kg oral) [%] | % protection MES 4 h (MES-induced seizures; 100 mg/kg oral) [%] | Minimum active dose (mg/kg) MES 0.5 h (MES-induced seizures) [mg/kg] | Minimum active dose (mg/kg) MES 4 h (MES-induced seizures) [mg/kg] | % protection Sc-PTZ 4 h (PTZ-induced seizures; 300 mg/kg oral) [%] | Recovery/death (induced seizures; 30 mg/kg oral) | Recovery/death (induced seizures; 300 mg/kg oral) | % protection MES 0.5 h (MES-induced seizures; 300 mg/kg oral) [%] | % protection MES 4 h (MES-induced seizures; 300 mg/kg oral) [%] | IC50 [1] [µM] | % protection Sc-PTZ 0.5 h (PTZ-induced seizures; 300 mg/kg oral) [%] | IC50 [2] [µM] | also measured
CC(=O)Nc1nnc(S(N)(=O)=O)s1 [Acetazolamide, reference compound] | 73.13 | 100 mg/kg | 100 | - (The indication - (dash) denotes a lack of action at the maximum dose supplied (300 mg/kg)) | - (The indication - (dash) denotes a lack of action at the maximum dose supplied (300 mg/kg)) | Recovery | 66.15 | 58.46 | 100 | 100 |  |  |  |  |  |  |  |  | % protection Sc-PTZ 4 h (PTZ-induced seizures; 100 mg/kg oral): 58.46%; Neurotoxicity (rotarod test), result in words (mice): no neurotoxicity
O=C(Nc1nncs1)c1cccc(OCCN2CCOCC2)c1 [Compound 6a, 3-(2-morpholinoethoxy)-N-(1,3,4-thiadiazol-2-yl)benzamide] |  | - (The indication - (dash) denotes a lack of action at the maximum dose supplied (300 mg/kg)) | 300 | - (The indication - (dash) denotes a lack of action at the maximum dose supplied (300 mg/kg)) | - (The indication - (dash) denotes a lack of action at the maximum dose supplied (300 mg/kg)) | Recovery | 18.46 |  | 100 | 300 | 19.08 | Recovery | Recovery | 30.76 | 43.07 | 0.4 ± 0.05 |  |  | 
O=C(Nc1nncs1)c1cccc(OCCN2CCCCC2)c1 [Compound 6b, 3-(2-(piperidin-1-yl)ethoxy)-N-(1,3,4-thiadiazol-2-yl)benzamide] |  | 300 mg/kg | 300 | - (The indication - (dash) denotes a lack of action at the maximum dose supplied (300 mg/kg)) | - (The indication - (dash) denotes a lack of action at the maximum dose supplied (300 mg/kg)) | Recovery | 30.76 |  | 100 | 300 | 34.17 | Recovery | Recovery | 41.53 | 50.76 | 0.23 ± 0.04 | 10.20 |  | 
O=C(Nc1nncs1)c1cccc(OCCN2CCCC2)c1 [Compound 6c, 3-(2-(pyrrolidin-1-yl)ethoxy)-N-(1,3,4-thiadiazol-2-yl)benzamide] | 33.81 | 100 mg/kg | 300 | - (The indication - (dash) denotes a lack of action at the maximum dose supplied (300 mg/kg)) | - (The indication - (dash) denotes a lack of action at the maximum dose supplied (300 mg/kg)) | Recovery | 26.15 | 35.38 | 100 | 100 | 40.21 | Recovery | Recovery | 38.46 | 46.13 | 0.47 ± 0.02 | 29.26 |  | 
CN(C)CCOc1cccc(C(=O)Nc2nncs2)c1 [Compound 6e, 3-(2-(dimethylamino)ethoxy)-N-(1,3,4-thiadiazol-2-yl)benzamide] | 32.39 | 30 mg/kg | 100 | - (The indication - (dash) denotes a lack of action at the maximum dose supplied (300 mg/kg)) | - (The indication - (dash) denotes a lack of action at the maximum dose supplied (300 mg/kg)) | Recovery | 32.3 | 55.38 | 30 | 100 | 74.2 | Recovery | Recovery | 46.15 | 73.83 | 0.21 ± 0.04 | 46.55 | 0.23 ± 0.02 | % protection Sc-PTZ 0.5 h (PTZ-induced seizures; 30 mg/kg oral): 39.02%; % protection Sc-PTZ 4 h (PTZ-induced seizures; 100 mg/kg oral): 63.58%; % protection MES 0.5 h (MES-induced seizures; 30 mg/kg oral): 38.46%
COc1ccc(C(=O)Nc2nncs2)cc1OCCN1CCOCC1 [Compound 7a, 4-Methoxy-3-(2-morpholinoethoxy)-N-(1,3,4-thiadiazol-2-yl)benzamide] |  | 300 mg/kg | 300 |  |  | Recovery | 16.92 |  | 100 | 300 | 15.38 | Recovery | Recovery |  | 40 | 0.88 ± 0.04 | 16.64 | 0.97 ± 0.05 | 
COc1ccc(C(=O)Nc2nncs2)cc1OCCN1CCCCC1 [Compound 7b, 4-Methoxy-3-(2-(piperidin-1-yl)ethoxy)-N-(1,3,4-thiadiazol-2-yl)benzamide] |  | 300 mg/kg | 300 |  |  | Recovery | 29.23 |  | 100 | 300 | 32.21 | Recovery | Recovery |  | 47.69 | 0.73 ± 0.02 | 23.07 | 0.74 ± 0.03 | 
CCCC(CCC)C(=O)O [Sodium valproate, reference compound] |  | 300 mg/kg | 300 | - (The indication - (dash) denotes a lack of action at the maximum dose supplied (300 mg/kg)) | - (The indication - (dash) denotes a lack of action at the maximum dose supplied (300 mg/kg)) |  |  |  | 300 | 300 | 63.03 |  | Recovery | 72.30 | 63.07 |  | 77.72 |  | Neurotoxicity (rotarod test), result in words (mice): no neurotoxicity

— article PMC11861159, “Design, synthesis, and in vitro, in vivo, and in silico evaluation of novel substituted 1,3,4-thiadiazole derivatives as anticonvulsant agents” (Frontiers in Chemistry, 2025)
